According to patent publication US20210087172A1, “FACTOR XIIa INHIBITORS” (UNIVESITY OF LEEDS, priority 2018, published 2021):

Experiments:
Format in all cases: biochemical
[1] = target: FXa (human) (Homo sapiens, UniProt P00742); test: Determination of selectivity: FXa chromogenic assay (S2765 substrate); settings: fold selectivity for FXIIa over FXa; FXa 5 nM, S2765 350 μM
Method: (§1) The activities of the compounds of the invention have been determined in vitro using the following assays protocols for the screening of activity of FXIa and other proteases. Each of these assays were performed in a purified system employing the use of chromogenic assays in microplate plate wells. Chromogenic peptide substrates mimicking natural protein substrates are attached via an amide bond to a chromogenic group. Paranitroaniline (pNA) is released from the peptide following catalyses by the proteolytic enzyme; the absorbance increases and can be monitored at 405 nm.
(§2) All compounds were dissolved in 100% (v/v) DMSO to a stock concentration of 10 mM, the highest concentration of compound used in each assay is 500 μM. The final concentrations of DMSO were 5% (v/v) in 50 mM Tris 137 mM NaCl pH 7.4. Where no test compound was added a final concentration of 5% DMSO was employed.
(§3) To determine selectivity of test compounds, these test compounds were assayed for inhibitory activity against other serine proteases including FXa and thrombin. Essentially compounds at increasing concentrations were incubated with each enzyme: FXa (5 nM) and thrombin (5 nM), for 10 mins at 37° C. followed the appropriate chromogenic substrate, S2765 (350 μM), and GPR (250 μM) respectively in 50 mM Tris, 137 mM NaCl, pH 7.4. Chromogenic substrates S2765 was from Chromogenix, and GPR from Bachem. Kinetic readings at 405 nm were monitored every 12 secs for a total duration of 3 hours at 37° C. Gradients of initial rates were determined and employed to calculate IC50 values. Values of IC50 were converted to Ki values based on the formula:
(§4) Ki=IC50/(1+[Substrate]/Km)
(§5) Where [Substrate] denotes the concentration of substrate used in the assay and Km is the determined value of each enzyme with its own substrate.
The fold selectivity for FXIIa over FXa for the compounds of the invention has been categorised based on the fold selectivity values, the categories being “o”, “oo” and “ooo”. The category “o” refers to fold selectivity values less than 10. The category “oo” refers to a fold selectivity value of 10 to 100. The category “ooo” refers to fold selectivity values greater than 100.

[2] = target: T1, Thrombin (human) (Homo sapiens, UniProt P00734); test: Determination of selectivity: thrombin chromogenic assay (GPR substrate); settings: fold selectivity for FXIIa over thrombin; thrombin 5 nM, GPR 250 μM
T1 construct: FXa (5 nM) and thrombin (5 nM)
Method: as §1, §2, §3, §4, §5
The fold selectivity for FXIIa over thrombin for the compounds of the invention has been categorised based on the fold selectivity values, the categories being “+”, “++” and “+++”. The category “+” refers to fold selectivity values less than 10. The category “++” refers to a fold selectivity value of 10 to 100. The category “+++” refers to fold selectivity values greater than 100.

[3] = target: T2, FXIIa alpha (Human) (Homo sapiens, UniProt P00748); test: Determination of Factor XIIa inhibition, chromogenic substrate S-2302; settings: 10 nM FXIIa, 450 μM S-2302, 37° C., pH 7.4; Ki converted from IC50
T2 construct: FXIIa alpha
T2 sequence (P00748 373-615 limits assumed): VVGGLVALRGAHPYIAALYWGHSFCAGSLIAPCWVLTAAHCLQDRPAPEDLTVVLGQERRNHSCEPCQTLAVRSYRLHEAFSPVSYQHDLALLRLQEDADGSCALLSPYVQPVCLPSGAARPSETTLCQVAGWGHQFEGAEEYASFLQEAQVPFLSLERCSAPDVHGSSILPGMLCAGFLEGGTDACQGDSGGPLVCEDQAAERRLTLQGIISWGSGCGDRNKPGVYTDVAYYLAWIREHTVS
T2 sequence (P00748 20-372 partner limits assumed): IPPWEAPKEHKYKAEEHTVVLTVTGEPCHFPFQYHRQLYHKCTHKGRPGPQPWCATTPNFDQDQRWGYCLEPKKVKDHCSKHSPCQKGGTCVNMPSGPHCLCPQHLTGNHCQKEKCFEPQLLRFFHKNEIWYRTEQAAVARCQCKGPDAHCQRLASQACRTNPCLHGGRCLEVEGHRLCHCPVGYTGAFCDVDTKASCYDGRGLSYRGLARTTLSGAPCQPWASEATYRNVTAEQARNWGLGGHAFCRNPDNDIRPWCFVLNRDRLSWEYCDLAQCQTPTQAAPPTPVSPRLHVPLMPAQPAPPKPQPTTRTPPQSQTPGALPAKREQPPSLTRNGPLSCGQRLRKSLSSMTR
Method: as §1, §2
Factor XIa activity was measured using a chromogenic substrate S-2302 (Chromogenix). Various concentrations of compound were incubated with 10 nM of FXIIa and incubated at 37° C. for 10 minutes in 50 mM Tris, 137 mM NaCl, pH 7.4, prior to the addition of a final concentration of 450 μM S-2302 chromogenic substrate. Kinetic readings at 405 nm were monitored every 12 secs for a total duration of 3 hours at 37° C. Gradients of initial rates were determined and employed to calculate IC50 values. Values of IC50 were converted to Ki values based on the formula:
as §4
The activity of the compounds of the invention has been categorised based on the Ki values, the categories being “*”, “**” and “***”. […] The category refers to compounds with a Ki value of 0.2 μM to 2 μM.

Sequence of FXa (human) (P00742 235-488 limits assumed): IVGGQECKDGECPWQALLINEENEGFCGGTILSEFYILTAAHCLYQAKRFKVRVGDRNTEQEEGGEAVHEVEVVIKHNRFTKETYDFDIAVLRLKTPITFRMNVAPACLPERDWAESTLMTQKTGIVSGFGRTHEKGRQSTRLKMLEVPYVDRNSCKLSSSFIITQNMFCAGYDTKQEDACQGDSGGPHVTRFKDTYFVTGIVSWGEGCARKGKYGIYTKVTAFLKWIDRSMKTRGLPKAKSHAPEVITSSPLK
Sequence of FXa (human) (P00742 41-179 partner limits assumed): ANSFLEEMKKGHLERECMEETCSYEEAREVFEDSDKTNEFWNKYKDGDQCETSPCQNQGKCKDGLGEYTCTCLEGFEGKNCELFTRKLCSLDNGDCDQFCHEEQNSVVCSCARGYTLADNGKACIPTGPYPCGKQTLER

Structure (SMILES)	FXa (human)/FXIIa alpha (human) fold selectivity [1]	Thrombin (human)/FXIIa alpha (human) fold selectivity [2]	Ki [3] [nM]
COc1ccc(OC(=O)N2CCN(C(=O)[C@H](N)CCc3ccccc3)[C@H](C(=O)NCc3ccc4c(c3)nnn4C)C2)cc1 [Compound M00932]	oo (a fold selectivity value of 10 to 100)	++ (a fold selectivity value of 10 to 100)	> 2000
Cn1nnc2cc(CNC(=O)[C@@H]3CN(C(=O)Oc4ccc(Cl)cc4)CCN3C(=O)[C@H](N)CCc3ccccc3)ccc21 [Compound M00933]	oo (a fold selectivity value of 10 to 100)	++ (a fold selectivity value of 10 to 100)	> 2000
Cc1ccc(OC(=O)N2CCN(C(=O)[C@H](N)CCc3ccccc3)[C@H](C(=O)NCc3ccc4c(c3)nnn4C)C2)cc1 [Compound M00934]	oo (a fold selectivity value of 10 to 100)	++ (a fold selectivity value of 10 to 100)	> 2000
O=C(NCc1cc2ccncc2[nH]1)[C@@H]1CN(C(=O)OCc2ccccc2)CCN1C(=O)[C@H]1C[C@@H](c2ccccc2)CN1 [Compound M00950]	oo (a fold selectivity value of 10 to 100)	++ (a fold selectivity value of 10 to 100)	200 to 2000
N[C@H](CCC(=O)N1CCCC1)C(=O)N1CCN(C(=O)OCc2ccccc2)C[C@H]1C(=O)NCc1cc2ccncc2[nH]1 [Compound M00951]	oo (a fold selectivity value of 10 to 100)	++ (a fold selectivity value of 10 to 100)	200 to 2000
N[C@H](CCC(=O)N1CCCC1)C(=O)N1CCN(C(=O)OCc2ccccc2)C[C@H]1C(=O)NCc1cc2cnccc2[nH]1 [Compound M00971]	ooo (fold selectivity values greater than 100)	+++ (fold selectivity values greater than 100)	< 200
NCc1ccc(CNC(=O)[C@@H]2CN(C(=O)OCc3ccccc3)CCN2C(=O)[C@H](N)CCc2ccccc2)cc1 [Compound M05086]	oo (a fold selectivity value of 10 to 100)	++ (a fold selectivity value of 10 to 100)	> 2000
Cn1nnc2cc(CNC(=O)[C@@H]3CN(C(=O)OCc4ccccc4)CCN3C(=O)[C@H](N)CCc3ccccc3)ccc21 [Compound M05098, (S)-4-((R)-2-Amino-4-phenyl-butyryl)-3-[(1-methyl-1H-benzotriazol-5-ylmethyl)-carbamoyl]-piperazine-1-carboxylic acid benzyl ester]	oo (a fold selectivity value of 10 to 100)	++ (a fold selectivity value of 10 to 100)	> 2000
Nc1noc2cc(CNC(=O)[C@@H]3CN(C(=O)OCc4ccccc4)CCN3C(=O)[C@H](N)CCc3ccccc3)ccc12 [Compound M05124]	oo (a fold selectivity value of 10 to 100)	+ (fold selectivity values less than 10)	> 2000
Nc1cc(CNC(=O)[C@@H]2CN(C(=O)OCc3ccccc3)CCN2C(=O)[C@H](N)CCC(=O)N2CCCC2)ccn1 [Compound M05209]	oo (a fold selectivity value of 10 to 100)	+++ (fold selectivity values greater than 100)	200 to 2000
Cn1nnc2cc(CNC(=O)[C@@H]3CN(C(=O)OCc4ccccc4)CCN3C(=O)[C@H](N)CCC(=O)N3CCCC3)ccc21 [Compound M05212]	ooo (fold selectivity values greater than 100)	+++ (fold selectivity values greater than 100)	> 2000
N[C@H](CCC(=O)N1CCCC1)C(=O)N1CCN(C(=O)OCc2ccccc2)C[C@H]1C(=O)NCc1ccc2[nH]cnc2c1 [Compound M05213]	oo (a fold selectivity value of 10 to 100)	++ (a fold selectivity value of 10 to 100)	> 2000
CN(C)[C@H](CCC(=O)N1CCCC1)C(=O)N1CCN(C(=O)OCc2ccccc2)C[C@H]1C(=O)NCc1ccc2[nH]cnc2c1 [Compound M05217]	oo (a fold selectivity value of 10 to 100)	++ (a fold selectivity value of 10 to 100)	> 2000
Cn1nnc2cc(CNC(=O)[C@@H]3CC(Oc4ncccn4)CCN3C(=O)[C@H](N)CCC(=O)N3CCCC3)ccc21 (stereo partly drawn) [Compound M05252]	oo (a fold selectivity value of 10 to 100)	++ (a fold selectivity value of 10 to 100)	> 2000
Cn1nnc2cc(CNC(=O)[C@@H]3CN(C(=O)OCc4ccccc4)CCN3C(=O)[C@H]3C[C@@H](c4ccccc4)CN3)ccc21 [Compound M05276]	oo (a fold selectivity value of 10 to 100)	++ (a fold selectivity value of 10 to 100)	> 2000
Cn1nnc2cc(CNC(=O)[C@@H]3C[C@@H](c4ccccc4)CCN3C(=O)[C@H](N)CCC(=O)N3CCCC3)ccc21 [Compound M05375]	oo (a fold selectivity value of 10 to 100)	++ (a fold selectivity value of 10 to 100)	> 2000
Cn1nnc2cc(CNC(=O)[C@@H]3C[C@H](c4ccccc4)CCN3C(=O)[C@H](N)CCC(=O)N3CCCC3)ccc21 [Compound M05385]	oo (a fold selectivity value of 10 to 100)	++ (a fold selectivity value of 10 to 100)	> 2000
